The results in this text go back to ChEMBL document CHEMBL1140282, “1,4-Benzodiazepine-2,5-diones as small molecule antagonists of the HDM2-p53 interaction: discovery and SAR” (Bioorg Med Chem Lett, 2005).

pIC50, pKd: −log10 of the molar value.

Data set [1] deals with Tumour suppressor p53/oncoprotein Mdm2 (Homo sapiens, UniProt Q00987). Nature of the data set: Inhibition of p53-binding to HDM2 (human MDM2) by fluorescence polarization peptide displacement assay. It counts as protein assay. On the technique in general: Polarisation of emitted light reports the rotation of a fluorescent probe.
Data set [2] can be described thus: Dissociation constant was determined; (by measuring difference in protein melting temperature). It counts as physicochemical.

Tumour suppressor p53/oncoprotein Mdm2, sequence (P04637 whole entry): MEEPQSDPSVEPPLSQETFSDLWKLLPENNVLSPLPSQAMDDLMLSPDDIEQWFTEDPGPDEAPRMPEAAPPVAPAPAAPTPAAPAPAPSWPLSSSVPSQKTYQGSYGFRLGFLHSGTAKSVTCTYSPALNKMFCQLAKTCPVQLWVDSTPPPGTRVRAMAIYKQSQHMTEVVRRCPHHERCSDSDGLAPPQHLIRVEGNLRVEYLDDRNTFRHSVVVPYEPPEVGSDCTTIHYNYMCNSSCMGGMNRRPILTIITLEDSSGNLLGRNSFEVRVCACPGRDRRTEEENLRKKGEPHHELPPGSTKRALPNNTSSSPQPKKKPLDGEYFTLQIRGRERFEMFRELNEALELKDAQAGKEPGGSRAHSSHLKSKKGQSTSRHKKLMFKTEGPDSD
Tumour suppressor p53/oncoprotein Mdm2, sequence (Q00987 whole entry): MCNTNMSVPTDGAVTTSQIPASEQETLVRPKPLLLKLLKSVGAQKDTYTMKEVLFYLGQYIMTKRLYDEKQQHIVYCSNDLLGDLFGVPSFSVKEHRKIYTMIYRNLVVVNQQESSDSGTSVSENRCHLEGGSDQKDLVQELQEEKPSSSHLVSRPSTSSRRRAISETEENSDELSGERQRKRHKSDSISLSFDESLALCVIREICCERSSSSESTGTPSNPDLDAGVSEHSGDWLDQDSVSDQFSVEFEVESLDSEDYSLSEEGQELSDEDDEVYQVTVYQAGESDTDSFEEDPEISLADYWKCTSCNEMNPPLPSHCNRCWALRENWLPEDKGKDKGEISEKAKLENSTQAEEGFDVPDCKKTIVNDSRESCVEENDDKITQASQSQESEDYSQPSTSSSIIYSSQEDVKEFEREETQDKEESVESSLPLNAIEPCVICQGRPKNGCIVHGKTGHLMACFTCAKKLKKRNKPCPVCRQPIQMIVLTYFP

On to `O=C(O)[C@H](c1ccc(C(F)(F)F)cc1)N1C(=O)c2cc(I)ccc2NC(=O)[C@@H]1c1ccc(Cl)cc1`, for which the pIC50 – broadly, the negative decadic logarithm of the IC50, by convention in mol/L – in data set [1] is 6.17.
For `O=C(O)[C@H](c1ccccc1)N1C(=O)c2cc(I)ccc2NC(=O)[C@@H]1c1ccccc1`, the pIC50 in data set [1] was 4.42. This pIC50 lies 1.75 log units lower than the previous one.
For the compound `CC(C)c1ccc([C@@H](C(=O)O)N2C(=O)c3cc(I)ccc3NC(=O)[C@@H]2c2ccc(Cl)cc2)cc1`, the negative-log Kd (pKd) (commonly the Kd on a negative log10 scale, so that one unit is a factor of ten) in data set [2] is 7.08. The negative-log IC50 (pIC50) in data set [1] is 5.81.
As for `Cc1ccc([C@H]2C(=O)Nc3ccc(I)cc3C(=O)N2[C@H](C(=O)O)c2ccccc2)cc1`, in data set [1], the pIC50 was 4.88.
In data set [1], `O=C(O)[C@H](c1ccccc1)N1C(=O)c2cc(I)ccc2NC(=O)[C@@H]1c1cccc(C(F)(F)F)c1` showed a negative-log IC50 (pIC50) of 4.35.
Regarding `O=C(O)[C@H](c1ccc(Cl)cc1)N1C(=O)c2ccc(Cl)cc2NC(=O)[C@@H]1c1ccc(Cl)cc1`, in data set [2], the negative logarithm of the Kd (pKd) was 5.78. This compound had a pIC50 in data set [1] of 5.20.
As for `O=C1Nc2ccc(I)cc2C(=O)N([C@H](C(=O)O)c2ccccc2Cl)[C@H]1c1ccc(Cl)cc1`, the negative-log IC50 (pIC50) in data set [1] was 4.70.
In turn, `O=C(O)[C@H](c1ccc(Cl)cc1)N1C(=O)c2cc(CCO)ccc2NC(=O)[C@@H]1c1ccc(Cl)cc1` had a negative logarithm of the IC50 (pIC50) in data set [1] of 5.62.
In data set [1], `O=C(O)[C@H](c1ccc(Cl)nc1)N1C(=O)c2cc(I)ccc2NC(=O)[C@@H]1c1cc2ccccc2[nH]1` gave a pIC50 of 5.10.
Compound `O=C(O)[C@H](c1ccc(Cl)nc1)N1C(=O)c2cc(I)ccc2NC(=O)[C@@H]1c1ccc(Cl)cc1` gave a negative-log IC50 (pIC50) in data set [1] of 5.83. This pIC50 is 0.73 log units higher than that of the compound before.
In the case of `Cc1ccc([C@@H](C(=O)O)N2C(=O)c3cc(I)ccc3NC(=O)[C@@H]2c2ccc(Cl)cc2)cc1`, in data set [2], the negative-log Kd (pKd) is 6.78. The pIC50 in data set [1] was 5.80.
In turn, `O=C(O)[C@H](c1ccc(Cl)cc1)N1C(=O)c2cc(I)ccc2NC[C@@H]1c1ccc(Cl)cc1` gave a pIC50 in data set [1] of 6.31.
Same read-out and setting: next, `CC(C)(C)c1ccc([C@@H](C(=O)O)N2C(=O)c3cc(I)ccc3NC(=O)[C@@H]2c2ccc(Cl)cc2)cc1`: 5.64.
In turn, `O=C(O)[C@H](c1ccc(Cl)cc1)N1C(=O)c2ccccc2NC(=O)[C@@H]1c1ccc(Cl)cc1` gave a pKd in data set [2] of 5.11. The same compound had a negative-log IC50 (pIC50) in data set [1] of 4.83.
Take `O=C(O)[C@H](c1ccc(Br)cc1)N1C(=O)c2cc(I)ccc2NC(=O)[C@@H]1c1ccc(Cl)cc1`: the negative logarithm of the Kd (pKd) in data set [2] was 7.08. In data set [1], this compound had a pIC50 of 6.21.
Take `O=C(O)[C@H](c1ccc(Cl)cc1)N1C(=O)c2cc(I)ccc2NC(=O)[C@@H]1c1ccc(C(F)(F)F)cc1`: the negative-log IC50 (pIC50) in data set [1] was 6.21.
With `CC(C)(C)c1ccc2c(c1)C(=O)N([C@H](C(=O)O)c1ccc(Cl)cc1)[C@@H](c1ccc(Cl)cc1)C(=O)N2`, the pIC50 in data set [1] is 5.64.
Consider `CC(C)c1ccc2c(c1)C(=O)N([C@H](C(=O)O)c1ccc(Cl)cc1)[C@@H](c1ccc(Cl)cc1)C(=O)N2`, for which, in data set [1], the negative-log IC50 (pIC50) was 5.99.
In turn, `CCCC[C@@H](C(=O)O)N1C(=O)c2cc(I)ccc2NC(=O)[C@@H]1c1ccc(Cl)cc1` had a negative logarithm of the IC50 (pIC50) in data set [1] of 4.85.
For `O=C(O)[C@H](c1ccc(Cl)nc1)N1C(=O)c2cc(I)ccc2NC(=O)[C@@H]1c1c[nH]c2ccccc12`, the pIC50 in data set [1] is 4.26.
Regarding `CCc1ccc2c(c1)C(=O)N([C@H](C(=O)O)c1ccc(Cl)cc1)[C@@H](c1ccc(Cl)cc1)C(=O)N2`, the pIC50 in data set [1] was 5.82.
`O=C(O)[C@H](c1ccc(Cl)cc1)N1C(=O)c2cc(CO)ccc2NC(=O)[C@@H]1c1ccc(Cl)cc1`: in data set [1], the pIC50 is 5.48. This pIC50 is 0.34 log units lower than that of the compound before.
As to `O=C(O)[C@H](c1ccccc1)N1C(=O)c2cc(I)ccc2NC(=O)[C@@H]1c1ccc(OC(F)(F)F)cc1`, the negative-log IC50 (pIC50) in data set [1] is 5.88.
For the compound `C#Cc1ccc2c(c1)C(=O)N([C@H](C(=O)O)c1ccc(Cl)cc1)[C@@H](c1ccc(Cl)cc1)C(=O)N2`, the negative-log Kd (pKd) in data set [2] is 6.60. This compound also gave a negative logarithm of the IC50 (pIC50) in data set [1] of 6.06.
In the case of `N#Cc1ccc2c(c1)C(=O)N([C@H](C(=O)O)c1ccc(Cl)cc1)[C@@H](c1ccc(Cl)cc1)C(=O)N2`, the pKd in data set [2] is 5.00. In data set [1], this compound showed a pIC50 of 4.83.
On the same counts, the results for `O=C(O)[C@H](c1ccc(Cl)cc1)N1C(=O)c2cc(Cl)ccc2NC(=O)[C@@H]1c1ccc(Cl)cc1` are 5.82 and 6.08.
`O=C(O)[C@H](c1ccc(O)cc1)N1C(=O)c2cc(I)ccc2NC(=O)[C@@H]1c1ccc(Cl)cc1` gave a pKd in data set [2] of 4.84. In addition, the pIC50 in data set [1] is 4.78.
In turn, `CC(C)CC[C@@H](C(=O)O)N1C(=O)c2cc(I)ccc2NC(=O)[C@@H]1c1ccc(Cl)cc1` showed a negative logarithm of the IC50 (pIC50) in data set [1] of 4.92.
In the case of `CCc1ccc([C@H]2C(=O)Nc3ccc(I)cc3C(=O)N2[C@H](C(=O)O)c2ccccc2)cc1`, the pIC50 in data set [1] was 5.12.
On the same count and under the same terms, next, `CC(=O)Nc1ccc2c(c1)C(=O)N([C@H](C(=O)O)c1ccc(Cl)cc1)[C@@H](c1ccc(Cl)cc1)C(=O)N2`: under 3.90.
The same measure, in the same setting: next, `O=C1Nc2ccc(I)cc2C(=O)N([C@@H](Cc2ccccc2)C(=O)O)[C@H]1c1ccc(Cl)cc1`: 4.92.
In data set [2], `O=C(O)[C@H](c1ccc(Cl)cc1)N1C(=O)c2cc(I)c(Cl)cc2NC(=O)[C@@H]1c1ccc(Cl)cc1` showed a pKd of 6.78. The negative logarithm of the IC50 (pIC50) in data set [1] was 6.15.
As for `O=C(O)[C@H](c1ccccc1)N1C(=O)c2cc(I)ccc2NC(=O)[C@@H]1c1ccc(Cl)cc1`, in data set [1], the pIC50 was 5.60.
In turn, `O=C1Nc2ccc(I)cc2C(=O)N([C@H](C(=O)O)C2CCCCC2)[C@H]1c1ccc(Cl)cc1` showed a pIC50 in data set [1] of 4.19.
`CC(C)c1ccc([C@H]2C(=O)Nc3ccc(I)cc3C(=O)N2[C@H](C(=O)O)c2ccccc2)cc1` had a pIC50 in data set [1] of 4.74. Compared with the last compound, the pIC50 is 0.55 log units higher.
For `O=C(O)[C@H](c1cccc(Cl)c1)N1C(=O)c2cc(I)ccc2NC(=O)[C@@H]1c1ccc(Cl)cc1`, in data set [1], the negative logarithm of the IC50 (pIC50) was 5.57.
In turn, `O=C(O)[C@H](c1ccc(Cl)cc1)N1C(=O)c2cc(I)ccc2NC(=O)[C@@H]1c1ccc(Cl)nc1` gave a pIC50 in data set [1] of 5.13.
In data set [2], `O=C(O)[C@H](c1ccc(Cl)cc1)N1C(=O)c2cc(Br)ccc2NC(=O)[C@@H]1c1ccc(Cl)cc1` gave a pKd of 6.01. This compound had a pIC50 in data set [1] of 6.08.
For the compound `O=C(O)[C@H](c1ccc(Cl)cc1)N1C(=O)c2cc(I)ccc2NC(=O)[C@@H]1c1ccc(OC(F)(F)F)cc1`, the negative logarithm of the Kd (pKd) in data set [2] is 6.12. This compound also gave a negative logarithm of the IC50 (pIC50) in data set [1] of 7.08.
`O=C(O)[C@H](c1ccc(Cl)cc1)N1Cc2cc(I)ccc2NC[C@@H]1c1ccc(Cl)cc1` showed a pIC50 in data set [1] of under 3.90.
Regarding `O=C(O)[C@H](c1ccccc1)N1C(=O)c2cc(I)ccc2NC(=O)[C@@H]1c1ccccc1C(F)(F)F`, in data set [1], the pIC50 is under 3.90.
